The values that follow come from ChEMBL document CHEMBL3351547, “Ricinine: a pyridone alkaloid from Ricinus communis that activates the Wnt signaling pathway through casein kinase 1α” (Bioorg Med Chem, 2014).

The subject of one data set is STF/293. Briefly: Activation of TCF/beta-catenin transcription in human STF/293 cells assessed as increase in TOP activity by luciferase reporter gene assay. In kind it is cell-based. Background: Reporter assays use an easily measured gene product as a stand-in for the process of interest.
In data set [1] the test system is HEK293. Briefly: Cytotoxicity against STF reporter expressing HEK293 cells at 10 to 30 uM after 24 hrs by fluorescein diacetate dye based fluorescence assay. In kind it is cell-based. The conditions noted are these: human, hek293, 24 h.
Data set [2] is described as follows: Activation of Proto-oncogene protein Wnt/beta-catenin pathway in human STF/293 cells assessed as increase in beta-catenin expression at 20 uM in presence of 200 nM CK1alpha activator pyrvinium after 24 hrs. Format: cell-based.
The subject of data set [3] is HEK293. Briefly: Effect on CK1alpha expression in STF reporter expressing HEK293 cells at 5 to 20 uM after 24 hrs. Format: functional, cell-based. The conditions noted are these: Homo sapiens.
Data set [4] has as its system HEK293. Put plainly: Activation of gene transcription in HEK293 cells assessed as increase in FOP at 10 to 30 uM activity by luciferase reporter gene assay. The conditions noted are these: Homo sapiens. In kind it is functional, cell-based.
The target in data set [5] is Casein kinase I isoform alpha (Homo sapiens) (UniProt P48729). Put plainly: Inhibition of CK1alpha in human STF/293 cells assessed as reduction in beta-catenin Ser45 phosphorylation at 20 uM in presence of 200 nM CK1alpha activator pyrvinium after 24 hrs. Format: cell-based.
Chain of Casein kinase I isoform alpha (Homo sapiens) (P48729 2-337 limits assumed): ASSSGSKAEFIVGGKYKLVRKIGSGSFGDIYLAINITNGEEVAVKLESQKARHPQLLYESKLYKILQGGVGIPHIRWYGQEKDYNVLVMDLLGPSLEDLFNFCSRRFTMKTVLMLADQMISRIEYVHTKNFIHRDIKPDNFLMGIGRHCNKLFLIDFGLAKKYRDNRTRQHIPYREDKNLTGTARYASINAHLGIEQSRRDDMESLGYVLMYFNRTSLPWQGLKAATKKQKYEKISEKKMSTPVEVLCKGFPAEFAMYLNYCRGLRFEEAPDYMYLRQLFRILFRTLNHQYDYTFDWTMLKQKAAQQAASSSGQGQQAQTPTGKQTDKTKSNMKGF
Data set [6] has the same target. Put plainly: Inhibition of CK1alpha in human STF/293 cells assessed as reduction in beta-catenin Ser45 phosphorylation at 5 to 20 uM after 24 hrs. Format: cell-based.
Data set [7] shares this target. Briefly: Inhibition of CK1alpha in human STF/293 cells assessed as reduction in beta-catenin Ser33 phosphorylation at 5 to 20 uM after 24 hrs. In kind it is cell-based.
In data set [8] the test system is HEK293. Put plainly: Effect on GSK3beta expression in STF reporter expressing HEK293 cells at 5 to 20 uM after 24 hrs. Format: functional, cell-based. The conditions noted are these: Homo sapiens.
Data set [9] in a line: Activation of Proto-oncogene protein Wnt/beta-catenin pathway in human STF/293 cells assessed as increase in nuclear beta-catenin expression at 5 to 20 uM after 24 hrs. In kind it is cell-based.
Data set [10] addresses Casein kinase I isoform alpha (Homo sapiens) (UniProt P48729). Briefly: Inhibition of CK1alpha in human STF/293 cells assessed as reduction in beta-catenin Ser37 phosphorylation at 5 to 20 uM after 24 hrs. Format: cell-based.
A short description of data set [11]: Activation of Proto-oncogene protein Wnt/beta-catenin pathway in zebra fish assessed as increase in beta-catenin expression at 100 to 300 uM treated from 1.75 hrs post fertilization to 24 hrs post fertilization. As to conditions: Danio rerio.
The target of data set [12] is Casein kinase I isoform alpha (Homo sapiens) (UniProt P48729). Put plainly: Inhibition of CK1alpha in human STF/293 cells assessed as reduction in beta-catenin Ser33/Ser37/Thr41 phosphorylation at 20 uM in presence of 200 nM CK1alpha activator pyrvinium after 24 hrs. Format: cell-based.
Data set [13] has the same target. Put plainly: Inhibition of CK1alpha in human STF/293 cells assessed as reduction in beta-catenin Thr41 phosphorylation at 5 to 20 uM after 24 hrs. Format: cell-based.
Data set [14] in a line: Activation of Proto-oncogene protein Wnt/beta-catenin pathway in human STF/293 cells assessed as increase in cytosolic beta-catenin expression at 5 to 20 uM after 24 hrs. In kind it is cell-based.

The structures appear in SMILES notation. Active and inactive are the calls of the source. The rule behind the calls is not given here.

Take `CC[C@H](CC[C@@H](C)[C@H]1CC[C@H]2[C@@H]3CC=C4C[C@@H](O[C@@H]5O[C@H](CO)[C@@H](O)[C@H](O)[C@H]5O)CC[C@]4(C)[C@H]3CC[C@]12C)C(C)C` [SITOGLUSIDE]: the values for the Activity result in the data set with STF/293 and in the data set with HEK293 [1] were “Dose-dependent effect” and “Non-toxic”, respectively.
In the case of `COc1ccn(C)c(=O)c1C#N` [RICININE], the outcome in [2], in data set [9] and in data set [14] was Active. Also, the outcome with HEK293 [3], in the data set with HEK293 [4] and in the data set on HEK293 [8] was inactive. In addition, the Activity entry in the data set on STF/293 is “Dose-dependent effect”; in [11], “Dose-dependent effect”; in the data set on HEK293 [1], “Non-toxic”. In addition, the inhibition entry in data set [5], in [6], in data set [7], in data set [10], in [12] and in data set [13] was “Active” throughout.
As to `CC[C@H](CC[C@@H](C)[C@H]1CC[C@H]2[C@@H]3C(=O)C=C4C[C@@H](O)CC[C@]4(C)[C@H]3CC[C@]12C)C(C)C`, the Activity result was “Dose-dependent effect” in the data set on STF/293 and “Non-toxic” in the data set with HEK293 [1]. Besides, in the data set with HEK293 [4], the outcome was inactive.
Take `C=C(C)[C@@H]1CC[C@]2(C)CC[C@]3(C)[C@H](CC[C@@H]4[C@@]5(C)CC[C@H](O)C(C)(C)[C@@H]5CC[C@]43C)[C@@H]12` [LUPEOL]: the Activity result with STF/293 was “Dose-dependent effect”; with HEK293 [1], “Non-toxic”.
